Structures are written as SMILES.

Experiment [1] in a line: Binding affinity to 15N-labelled His6-tagged SARS-CoV-2 Mac3 (551 to 675 residues) V635I mutant expressed in Escherichia coli Rosetta by NMR HSQC spectral analysis. More on the design: species or system Severe acute respiratory syndrome coronavirus 2.
The nature of experiment [2]: Binding affinity to 15N-labelled MTSL-tagged SARS-CoV-2 Mac3 (551 to 675 residues) T583C mutant expressed in Escherichia coli Rosetta by transferred PRE analysis. More on the design: species or system Severe acute respiratory syndrome coronavirus 2.

On to `Cc1ccc(Cl)c(Nc2ccccc2C(=O)O)c1Cl` [MECLOFENAMIC ACID], for which the dissociation constant Kd in experiment [1] stood at 300 µM; in experiment [2] it was 700 µM.

(Values after ChEMBL document CHEMBL5096239, “Two Binding Sites of SARS-CoV-2 Macrodomain 3 Probed by Oxaprozin and Meclomen” (J Med Chem, 2022).)
